In patent US20150181873A1, “HERBICIDE-RESISTANT SUNFLOWER PLANTS, POLYNUCLEOTIDES ENCODING HERBICIDE=RESISTANT ACETO HYDROXY ACID SYNTHASE LARGE SUBUNIT PROTEINS, AND METHODS OF USE” (NIDERA S.A., priority 2013, published 2015):

What was measured:
Assay type in all cases: in vivo, Helianthus annuus
[1] = test system: sunflower restorer line TH10 (A205V); test: Greenhouse imazapir dose response, TH10; conditions: 14 DAT
Procedure: (§1) A greenhouse study was conducted to quantify and contrast the imazapir sensivity of the mutants A122T and A205V in different genetic backgrounds at the whole plant level in sunflower. Seeds of the different sunflower lines that were used in this study were obtained under field conditions.
(§2) Seeds were sown in Petri dishes and, after germination, plantlets were transplanted to pots of 10 cm of diameter in a potting media consisting of equal parts of vermiculite, soil and sand. Plants were grown in a greenhouse under natural light conditions supplemented with 400 W sodium halide lamps to provide a 16 hrs daylength. Day/night temperatures were 25 and 20° C., respectively. At the V2 stage 10 plants of each genotype were randomly assigned to each treatment consisting of […] imazapir doses (0, 40, 80, 160, 240, 320, 400 and 480 g ai/ha), and a zero-time biomass determination. Experiment was arranged as a randomized block design with a full factorial (sunflower line×treatment) arrangement of treatments and 10 replications.
(§3) On the day of herbicide application ten plants of each genotype were cut at the cotyledonal node and dried at 60° C. for 48 hrs zero-time for dried weight determination. […] Height was determined as the distance between the cotyledonal node and the apex of each plant. For root biomass determination, each plant was taken from the pot and the potting media was washed out from the roots. Above ground biomass data from each line were converted to biomass accumulation after application by subtracting the appropriate average zero-time biomass from each sample. Dry biomass data were converted to percentages of the untreated control plants within each line to allow direct comparisons between groups.

[2] = test system: sunflower restorer line IR79 (A205V); test: Greenhouse imazapir dose response, IR79; conditions: 14 DAT
Procedure: as §1, §2, §3

[3] = test system: sunflower genotypes carrying the A122T mutation event; test: Greenhouse imazapir dose response, A122T genotypes together; conditions: A122T mean, 14 DAT
Procedure: as §1, §2, §3

CC(C)C1(C)N=C(c2ncccc2C(=O)O)NC1=O (stereo not drawn) [Imazapyr, imazapyr]
Phytotoxicity Index ([1]; 0.5x (40 g ai/ha)): 0
biomass accumulation, % of untreated ([1]; 0.5x (40 g ai/ha)): 99.2%
plant height, % of untreated ([1]; 0.5x (40 g ai/ha)): 99.2%
root dry weight, % of untreated ([1]; 0.5x (40 g ai/ha)): 90.3%
Phytotoxicity Index ([1]; 1x (80 g ai/ha)): 0
biomass accumulation, % of untreated ([1]; 1x (80 g ai/ha)): 85.0%
plant height, % of untreated ([1]; 1x (80 g ai/ha)): 98.1%
root dry weight, % of untreated ([1]; 1x (80 g ai/ha)): 69.9%
Phytotoxicity Index ([1]; 2x (160 g ai/ha)): 3.1
biomass accumulation, % of untreated ([1]; 2x (160 g ai/ha)): 58.1%
plant height, % of untreated ([1]; 2x (160 g ai/ha)): 63.6%
root dry weight, % of untreated ([1]; 2x (160 g ai/ha)): 41.3%
Phytotoxicity Index ([1]; 3x (240 g ai/ha)): 3.9
biomass accumulation, % of untreated ([1]; 3x (240 g ai/ha)): 48.1%
plant height, % of untreated ([1]; 3x (240 g ai/ha)): 51.9%
root dry weight, % of untreated ([1]; 3x (240 g ai/ha)): 42.8%
Phytotoxicity Index ([1]; 4x (320 g ai/ha)): 5.9
biomass accumulation, % of untreated ([1]; 4x (320 g ai/ha)): 28.8%
plant height, % of untreated ([1]; 4x (320 g ai/ha)): 27.5%
root dry weight, % of untreated ([1]; 4x (320 g ai/ha)): 22.3%
Phytotoxicity Index ([1]; 5x (400 g ai/ha)): 6.9
biomass accumulation, % of untreated ([1]; 5x (400 g ai/ha)): 27.4%
plant height, % of untreated ([1]; 5x (400 g ai/ha)): 26.0%
root dry weight, % of untreated ([1]; 5x (400 g ai/ha)): 22.7%
Phytotoxicity Index ([1]; 6x (480 g ai/ha)): 6.7
biomass accumulation, % of untreated ([1]; 6x (480 g ai/ha)): 24.9%
plant height, % of untreated ([1]; 6x (480 g ai/ha)): 29.3%
root dry weight, % of untreated ([1]; 6x (480 g ai/ha)): 16.4%
biomass accumulation, % of untreated ([2]; 0.5x (40 g ai/ha)): 94.4%
plant height, % of untreated ([2]; 0.5x (40 g ai/ha)): 92.8%
root dry weight, % of untreated ([2]; 0.5x (40 g ai/ha)): 98.6%
biomass accumulation, % of untreated ([2]; 1x (80 g ai/ha)): 74.0%
plant height, % of untreated ([2]; 1x (80 g ai/ha)): 80.9%
root dry weight, % of untreated ([2]; 1x (80 g ai/ha)): 53.4%
biomass accumulation, % of untreated ([2]; 2x (160 g ai/ha)): 67.7%
plant height, % of untreated ([2]; 2x (160 g ai/ha)): 74.9%
root dry weight, % of untreated ([2]; 2x (160 g ai/ha)): 42.5%
biomass accumulation, % of untreated ([2]; 3x (240 g ai/ha)): 49.1%
plant height, % of untreated ([2]; 3x (240 g ai/ha)): 55.7%
root dry weight, % of untreated ([2]; 3x (240 g ai/ha)): 38.4%
biomass accumulation, % of untreated ([2]; 4x (320 g ai/ha)): 44.5%
plant height, % of untreated ([2]; 4x (320 g ai/ha)): 52.8%
root dry weight, % of untreated ([2]; 4x (320 g ai/ha)): 31.5%
biomass accumulation, % of untreated ([2]; 5x (400 g ai/ha)): 40.1%
plant height, % of untreated ([2]; 5x (400 g ai/ha)): 41.7%
root dry weight, % of untreated ([2]; 5x (400 g ai/ha)): 23.3%
biomass accumulation, % of untreated ([2]; 6x (480 g ai/ha)): 35.3%
plant height, % of untreated ([2]; 6x (480 g ai/ha)): 33.2%
root dry weight, % of untreated ([2]; 6x (480 g ai/ha)): 21.9%
biomass accumulation, Dif with control ([3]; 0.5x (40 g ai/ha)): 1.1%
plant height, Dif with Control ([3]; 0.5x (40 g ai/ha)): 0.6%
root dry weight, Dif with control ([3]; 0.5x (40 g ai/ha)): 0.1%
biomass accumulation, Dif with control ([3]; 1x (80 g ai/ha)): 3.2%
plant height, Dif with Control ([3]; 1x (80 g ai/ha)): 1.4%
root dry weight, Dif with control ([3]; 1x (80 g ai/ha)): 2.5%
biomass accumulation, Dif with control ([3]; 2x (160 g ai/ha)): 5.1%
plant height, Dif with Control ([3]; 2x (160 g ai/ha)): 2.7%
root dry weight, Dif with control ([3]; 2x (160 g ai/ha)): 5.9%
biomass accumulation, Dif with control ([3]; 3x (240 g ai/ha)): 7.2%
plant height, Dif with Control ([3]; 3x (240 g ai/ha)): 4.4%
root dry weight, Dif with control ([3]; 3x (240 g ai/ha)): 10.6%
biomass accumulation, Dif with control ([3]; 4x (320 g ai/ha)): 12.2%
plant height, Dif with Control ([3]; 4x (320 g ai/ha)): 6.3%
